Where two headings read alike, the source gives them in different places.

Experimental findings from US8835462B2, “Macrocyclic picolinamides as fungicides” (Dow AgroSciences LLC, priority 2012, dated 2014) are described below.

Series [1] concerns Puccinia triticina. Nature of the series: Fungicide mobility (dropline mobility test), wheat brown rust (PUCCRT). It is filed as in vivo. The following applies: 1 ug/leaf, disease-free zone as percent of distance from marked line to leaf tip; for Dropline Mobility Test PUCCRT 1 DPM: 1 Day Protectant Mobility; for Dropline Mobility Test PUCCRT 3 DCM: 3 Day Curative Mobility. As for the experimental part: Evaluation of Fungicide Mobility: Wheat Brown Rust (Puccinia Triticina; Synonym: Puccinia recondita f. sp. Tritici; Bayer Code PUCCRT):
“Yuma” wheat seedlings were used in the test. One mg of compound was dissolved in 9 μl of EC blank (emulsifiable concentrate) and 500 μl of acetone. Acetone was then evaporated overnight by leaving the vial open in a fume hood. Two milliliters of water containing 110 ppm Triton X-100 was added to each vial to prepare application solutions. A […] drop of formulated material was applied to a marked line on the adaxial surface 5 cm from the leaf tip of the primary leaves. The primary leaves were kept in a horizontal position. Each treatment had 6 replicates. Plants were inoculated with PUCCRT 1-day after (1DPM) or 3-day prior to (3DCM) compound applications. When rust was fully expressed on primary leaves on control plants, the zone of treated leaves that was disease-free in the acropetal direction was measured with a ruler and converted to percent of the distance from marked line to leaf tip.

Series [2] concerns Puccinia triticina. As to the kind of experiment: Wheat brown rust (PUCCRT) fungicidal activity on wheat seedlings. It is filed as in vivo. As for the experimental part:
Technical grades of materials were dissolved in acetone, which were then mixed with nine volumes of water containing 110 ppm Triton X-100. The fungicide solutions were applied onto wheat seedlings using an automated booth sprayer to run-off. All sprayed plants were allowed to air dry prior to further handling. Wheat plants (variety Yuma) were grown from seed in a greenhouse in 50% mineral soil/50% soil-less Metro mix until the first leaf was fully emerged, with 7-10 seedlings per pot. These plants were inoculated with an aqueous spore suspension of Septoria tritici either prior to or after fungicide treatments. After inoculation the plants were kept in 100% relative humidity (one day in a dark dew chamber followed by two to three days in a lighted dew chamber at 20° C.) to permit spores to germinate and infect the leaf. The plants were then transferred to a greenhouse set at 20° C. for disease to develop. When disease symptoms were fully expressed on the 1st leaves of untreated plants, infection levels were assessed on a scale of 0 to 100 percent disease severity. Percent disease control was calculated using the ratio of disease severity on treated plants relative to untreated plants. Evaluation of Fungicidal Activity: Wheat Brown Rust (Puccinia triticina; Synonym: Puccinia recondita f. sp. tritici; Bayer Code PUCCRT) Wheat plants (variety Yuma) were grown from seed in a greenhouse in 50% mineral soil/50% soil-less Metro mix until the first leaf was fully emerged, with 7-10 seedlings per pot. These plants were inoculated with an aqueous spore suspension of Puccinia triticina either prior to or after fungicide treatments. After inoculation the plants were kept in a dark dew room at 22° C. with 100% relative humidity overnight to permit spores to germinate and infect the leaf. The plants were then transferred to a greenhouse set at 24° C. for disease to develop. Fungicide formulation, application and disease assessment followed the procedures as described in the Example A.

Series [3] deals with Mycosphaerella graminicola; Anamorph: Septoria tritici. Nature of the series: Leaf blotch of wheat (SEPTTR) fungicidal activity on wheat seedlings. The following applies: Zymoseptoria tritici. It is filed as in vivo. As for the experimental part: Evaluation of Fungicidal Activity: Leaf Blotch of Wheat (Mycosphaerella Graminicola; Anamorph: Septoria tritici; Bayer Code […]) Technical grades of materials were dissolved in acetone, which were then mixed with nine volumes of water containing 110 ppm Triton X-100. The fungicide solutions were applied onto wheat seedlings using an automated booth sprayer to run-off. All sprayed plants were allowed to air dry prior to further handling. Wheat plants (variety Yuma) were grown from seed in a greenhouse in 50% mineral soil/50% soil-less Metro mix until the first leaf was fully emerged, with 7-10 seedlings per pot. These plants were inoculated with an aqueous spore suspension of Septoria tritici either prior to or after fungicide treatments. After inoculation the plants were kept in 100% relative humidity (one day in a dark dew chamber followed by two to three days in a lighted dew chamber at 20° C.) to permit spores to germinate and infect the leaf. The plants were then transferred to a greenhouse set at 20° C. for disease to develop. When disease symptoms were fully expressed on the 1st leaves of untreated plants, infection levels were assessed on a scale of 0 to 100 percent disease severity. Percent disease control was calculated using the ratio of disease severity on treated plants relative to untreated plants.

[4] abbreviates: 24 h, 1 Day Protectant, read-out: Disease Control PUCCRT 1 DP.
Where [5] appears, read: 72 h, 3 Day Curative, read-out: Disease Control PUCCRT 3 DC.
Setting [6] is: 24 h, 1 Day Protectant, read-out: Disease Control SEPTTR 1 DP.
Where [7] appears, read: 72 h, 3 Day Curative, read-out: Disease Control SEPTTR 3 DC.

As for `COc1ccnc(C(=O)N[C@H]2COC[C@H](Cc3ccccc3)[C@@H](OC(=O)C(C)C)[C@H](C)OC2=O)c1O` [Compound 1], the melting point lay in the range of 66 to 70 °C. Also, in series [1], the “Dropline Mobility Test PUCCRT 1 DPM” value is on record as “B (More than 0-Less than 80)” and the “Dropline Mobility Test PUCCRT 3 DCM” value is listed as “B (More than 0-Less than 80)”. Further, the pest or weed control at 100 ppm in series [2] (setting [4]) was in the range of 80 to 100%. The pest or weed control at 100 ppm in series [2] (setting [5]) lay in the range of 80 to 100%. Also, the pest or weed control at 100 ppm in series [3] (setting [6]) lay in the range of 80 to 100%. For the same compound, the pest or weed control at 100 ppm in series [3] (setting [7]) fell in the range of 80 to 100%.

As to `COc1ccnc(C(=O)N[C@H]2COC[C@H](CC3CCCCC3)[C@@H](OCC(C)C)[C@H](C)OC2=O)c1O` [Compound 4, N-((3S,7S,8R,9S)-7-(cyclohexylmethyl)-8-isobutoxy-9-methyl-2-oxo-1,5-dioxonan-3-yl)-3-hydroxy-4-methoxypicolinamide], the melting point fell in the range of 89 to 92 °C. For the same compound, in series [2] (setting [4]), the pest or weed control at 100 ppm lay within 80 to 100%. Also, the pest or weed control at 100 ppm in series [2] (setting [5]) was 80 to 100%. In series [3] (setting [6]), the pest or weed control at 100 ppm was 80 to 100%. Moreover, the pest or weed control at 100 ppm in series [3] (setting [7]) was 80 to 100%.

Turning to `C=C(C)CO[C@@H]1[C@@H](Cc2ccccc2)COC[C@H](NC(=O)c2nccc(OC)c2O)C(=O)O[C@H]1C` [Compound 6], the melting point was in the range of 96 to 104 °C. Also, in series [2] (setting [4]), the pest or weed control at 100 ppm is 80 to 100%. The pest or weed control at 100 ppm in series [2] (setting [5]) lay within 80 to 100%. In addition, the pest or weed control at 100 ppm in series [3] (setting [6]) lay in the range of 80 to 100%. Further, the pest or weed control at 100 ppm in series [3] (setting [7]) lay within 0 to 80%.

In the case of `COc1ccnc(C(=O)N[C@H]2COC[C@H](Cc3ccccc3)[C@@H](OCCC(C)C)[C@H](C)OC2=O)c1OCOC(C)=O` [Compound 42], in series [1], the “Dropline Mobility Test PUCCRT 1 DPM” value is “B (More than 0-Less than 80)”. Also, the “Dropline Mobility Test PUCCRT 3 DCM” value in series [1] is reported as “B (More than 0-Less than 80)”. In addition, the pest or weed control at 100 ppm in series [2] (setting [4]), in series [2] (setting [5]), in series [3] (setting [6]) and in series [3] (setting [7]) was 80 to 100% in each case.

Take `COc1ccnc(C(=O)N[C@H]2COC[C@H](Cc3ccccc3)[C@@H](OCC(F)F)[C@H](C)OC2=O)c1O` [Compound 43]: the “Dropline Mobility Test PUCCRT 1 DPM” value in series [1] is “A (80-100)”. Moreover, the “Dropline Mobility Test PUCCRT 3 DCM” value in series [1] is listed as “B (More than 0-Less than 80)”. Further, the pest or weed control at 100 ppm in series [2] (setting [4]), in series [2] (setting [5]), in series [3] (setting [6]) and in series [3] (setting [7]) was 80 to 100% each time.

Consider `COc1ccnc(C(=O)N[C@H]2COC[C@H](Cc3ccccc3)[C@@H](OCCC(C)OC)[C@H](C)OC2=O)c1O` (some centres unmarked) [Compound 45], for which the “Dropline Mobility Test PUCCRT 1 DPM” value in series [1] is “A (80-100)”. Moreover, the “Dropline Mobility Test PUCCRT 3 DCM” value in series [1] is “A (80-100)”. Also, the pest or weed control at 100 ppm in series [2] (setting [4]), in series [2] (setting [5]), in series [3] (setting [6]) and in series [3] (setting [7]) was 80 to 100% in each case.

For the compound `C[C@@H]1OC(=O)[C@@H](NC(=O)OC(C)(C)C)COC[C@H](Cc2ccccc2)[C@H]1O` [Compound 48, tert-Butyl-(3S,7S,8R,9S)-7-benzyl-8-hydroxy-9-methyl-2-oxo-1,5-dioxonan-3-ylcarbamate], the melting point was 62 to 67 °C.

As to `COC(=O)/C=C/O[C@@H]1[C@@H](Cc2ccccc2)COC[C@H](NC(=O)OC(C)(C)C)C(=O)O[C@H]1C` [Compound 49, (E)-methyl 3-(((3S,6S,7R,8S)-8-benzyl-3-((tert-butoxycarbonyl)amino)-6-methyl-4-oxo-1,5-dioxonan-7-yl)oxy)acrylate], the melting point was 128 to 129 °C.

As for `C[C@@H]1OC(=O)[C@@H](NC(=O)OC(C)(C)C)COC[C@H](Cc2ccccc2)[C@H]1O/C=C/C(=O)OCc1ccccc1` [Compound 51, (E)-benzyl 3-(((3S,6S,7R,8S)-8-benzyl-3-((tert-butoxycarbonyl)amino)-6-methyl-4-oxo-1,5-dioxonan-7-yl)oxy)acrylate], the melting point lay in the range of 182 to 185 °C.

Consider `C[C@@H]1OC(=O)[C@@H](NC(=O)OC(C)(C)C)COC[C@H](Cc2ccccc2)[C@H]1OCCC(=O)N(C)C` [Compound 53, tert-butyl ((3S,7S,8R,9S)-7-benzyl-8-(3-(dimethylamino)-3-oxopropoxy)-9-methyl-2-oxo-1,5-dioxonan-3-yl)carbamate], for which the melting point was in the range of 142 to 143 °C.

In turn, `C[C@@H]1OC(=O)[C@@H](N(C(=O)OC(C)(C)C)C(=O)OC(C)(C)C)COC[C@H](Cc2ccccc2)[C@H]1O` [Compound 57, tert-butyl N-[(3S,7S,8R,9S)-7-benzyl-8-hydroxy-9-methyl-2-oxo-1,5-dioxonan-3-yl]-N-tert-butoxycarbonylcarbamate] came in with a melting point of 139 to 141 °C.

As for `C[C@@H]1OC(=O)[C@@H](NC(=O)OC(C)(C)C)COC[C@H](Cc2ccccc2)[C@H]1OC(=O)c1ccccc1` [Compound 61], the melting point lay within 54 to 63 °C.

For `C[C@@H]1OC(=O)[C@@H](NC(=O)OC(C)(C)C)COC[C@H](Cc2ccccc2)[C@H]1OC(=O)C1CC1` [Compound 62], the melting point lay in the range of 72 to 85 °C.

Consider `C=CCO[C@@H]1[C@@H](Cc2ccccc2)COC[C@H](N(C(=O)OC(C)(C)C)C(=O)OC(C)(C)C)C(=O)O[C@H]1C` [Compound 65], for which the melting point lay in the range of 88 to 90 °C.

Compound `C[C@@H]1OC(=O)[C@@H](N(C(=O)OC(C)(C)C)C(=O)OC(C)(C)C)COC[C@H](Cc2ccccc2)[C@H]1OC/C=C/C(F)(F)F` [Compound 66] had a melting point of 131 to 133 °C.

Compound `C/C=C/C(C)O[C@@H]1[C@@H](Cc2ccccc2)COC[C@H](N(C(=O)OC(C)(C)C)C(=O)OC(C)(C)C)C(=O)O[C@H]1C` (some centres unmarked) [Compound 67] yielded a melting point of 80 to 83 °C.

For the compound `CCCO[C@@H]1[C@@H](Cc2ccccc2)COC[C@H](N(C(=O)OC(C)(C)C)C(=O)OC(C)(C)C)C(=O)O[C@H]1C` [Compound 68], the melting point is 98 to 100 °C.

For the compound `C[C@@H]1OC(=O)[C@@H](N(C(=O)OC(C)(C)C)C(=O)OC(C)(C)C)COC[C@H](Cc2ccccc2)[C@H]1OCCCC(F)(F)F` [Compound 69], the melting point fell in the range of 100 to 102 °C.

On to `CC/C=C/CO[C@@H]1[C@@H](Cc2ccccc2)COC[C@H](N(C(=O)OC(C)(C)C)C(=O)OC(C)(C)C)C(=O)O[C@H]1C` [Compound 71], for which the melting point lay in the range of 127 to 129 °C.

`CCCCCO[C@@H]1[C@@H](Cc2ccccc2)COC[C@H](N(C(=O)OC(C)(C)C)C(=O)OC(C)(C)C)C(=O)O[C@H]1C` [Compound 72]: the melting point was 94 to 97 °C.

In the case of `C=C(C)CO[C@@H]1[C@@H](Cc2ccccc2)COC[C@H](N(C(=O)OC(C)(C)C)C(=O)OC(C)(C)C)C(=O)O[C@H]1C` [Compound 82, tert-butyl N-[(3S,7S,8R,9S)-7-benzyl-9-methyl-8-(2-methylallyloxy)-2-oxo-1,5-dioxonan-3-yl]-N-tert-butoxycarbonylcarbamate], the melting point fell in the range of 109 to 110 °C.
